The values below come from US20250235543A1, “MODIFIED PROTEINS AND PROTEIN DEGRADERS” (Cullgen (Shanghai), Inc., priority 2021, published 2025).

Some results are limits rather than exact numbers.

Holding throughout (type): cell-based
For experiment [1], the target named is T1, BRD4 (Homo sapiens, UniProt O60885).
T1 construct: endogenous in cells; host or cells: Daudi, SU-DHL-4, MDA-MB-231
Briefly: Immunoblot of BRD4 protein levels in Daudi, SU-DHL-4 or MDA-MB-231 cells. The conditions noted are these: SU-DHL-4 or MDA-MB-231 cell lines, 8 hours, dose range. From the text:
Additional exemplary heterobifunctional compounds were designed to modulate the protein levels of either P300/CBP, or BRD4, and characterized in multiple cell lines. […] Taken together, DDB1 ligands conjugating with different target ligands may modulate the cellular target protein levels of cyclin D, CDK4/6, P300/CBP and BRD4.

Experiment [2] addresses T1, BRD4. The experiment can be described thus: Immunoblotting of BRD4 protein levels in multiple cell lines. To be noted: Daudi, SU-DHL-4, or MDA-MB-231 cells, 8 hours. How it is done:
Daudi, SU-DHL-4, or MDA-MB-231 cells were treated with CPD-253 at indicated concentrations for 8 hours.
Cultured cells were washed with cold PBS once and lysed in cold RIPA buffer supplemented with protease inhibitors and phosphatase inhibitors (Beyotime Biotechnology). The solutions were then incubated at 4° C. for 30 min with gentle agitation to fully lysed cells. Cell lysates were centrifuged at 13,000 rpm for 10 min at 4° C. and pellets were discarded. Total protein concentrations in the lysates were determined following BCA assays (Beyotime Biotechnology). Cell lysates were mixed with Laemmli loading buffer and heated at 99° C. for 5 min. Proteins were resolved on SDS-PAGE and visualized using Western ECL Substrate kits on a ChemiDoc MP Imaging system (Bio-Rad). Protein bands were quantitated using the Image Lab software provided by Bio-Rad.

In experiment [3] the test system is T47D cells. The experiment can be described thus: Flow cytometric analysis of Annexin V/7-AAD stained T47D cells. To be noted: 6 days. As to the method:
ER^+ breast cancer T47D cells were treated with DMSO, palbociclib, heterobifunctional compound CPD-343, or negative control compound CPD-380 for 6 days at doses approximating IC50 and IC90 concentrations determined in FIGS. 10A and 13. Cells were harvested by trypsinization, staining was carried out using the Annexin V Apoptosis Detection Kit. The percentages of early apoptotic (Annexin V^+7-AAD^−, lower right quadrant), late apoptotic (Annexin V^+7-AAD^+, upper right quadrant) and necrotic cells (Annexin V-7-AAD^+, upper left quadrant) are indicated on dot plots. […] Furthermore, we developed one ER^+ breast cancer T47D model with acquired resistance after long period of treatment with 1 μM palbociclib (over IC90). Cells were deemed resistant when growing in the presence of palbo at the same rate as parental cells. Palbo resistance was determined by CellTiter-Lumi cell viability assay.

Experiment [4] deals with T47D palbo-resistant model. Briefly: CellTiter-Lumi cell viability in T47D palbociclib-resistant model. The conditions noted are these: 6 days; resistance acquired under 1 μM palbociclib.
Procedure: Furthermore, we developed one ER^+ breast cancer T47D model with acquired resistance after long period of treatment with 1 μM palbociclib (over IC90). […] Palbo resistance was determined by CellTiter-Lumi cell viability assay.
Another experiment relates to cyclin D1. The experiment can be described thus: Cyclin D1 percentage degradation in Calu-1 cells (immunoblotting). The conditions noted are these: 200 nM, 16 hours. A digest of the protocol:
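Cyclin D1 degradation was assessed by western blot. Clarified lysates, obtained by RIPA lysis with inhibitors and centrifugation at 13,000 rpm, were normalized by BCA protein assay and separated by SDS-PAGE. Bands were detected with Western ECL Substrate on a Bio-Rad ChemiDoc MP Imaging system and quantified in Image Lab software to derive percentage degradation.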

The target of a further experiment is T2, CDK4 (Homo sapiens, UniProt P11802).
T2 construct: endogenous in cells; host or cells: Calu-1
T2 sequence (P11802 2-303 limits assumed): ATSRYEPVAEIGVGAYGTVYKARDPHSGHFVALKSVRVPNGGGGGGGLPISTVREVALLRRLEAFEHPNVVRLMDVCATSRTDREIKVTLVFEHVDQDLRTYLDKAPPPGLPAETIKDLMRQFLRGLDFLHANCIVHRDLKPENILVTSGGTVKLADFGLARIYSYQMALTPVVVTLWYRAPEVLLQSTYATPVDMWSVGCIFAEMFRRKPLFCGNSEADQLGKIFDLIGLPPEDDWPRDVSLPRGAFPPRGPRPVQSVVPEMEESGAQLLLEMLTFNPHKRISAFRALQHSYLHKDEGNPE
T2 sequence (P24385 whole entry partner): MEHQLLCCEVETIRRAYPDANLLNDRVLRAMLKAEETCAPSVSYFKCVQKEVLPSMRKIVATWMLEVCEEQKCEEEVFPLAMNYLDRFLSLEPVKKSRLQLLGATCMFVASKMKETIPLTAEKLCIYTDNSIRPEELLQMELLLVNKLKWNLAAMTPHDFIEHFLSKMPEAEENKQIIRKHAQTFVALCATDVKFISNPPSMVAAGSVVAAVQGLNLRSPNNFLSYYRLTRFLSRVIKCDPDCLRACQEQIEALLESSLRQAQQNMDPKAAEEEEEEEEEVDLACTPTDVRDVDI
T2 sequence (Q16531 2-1140 limits assumed, further chain): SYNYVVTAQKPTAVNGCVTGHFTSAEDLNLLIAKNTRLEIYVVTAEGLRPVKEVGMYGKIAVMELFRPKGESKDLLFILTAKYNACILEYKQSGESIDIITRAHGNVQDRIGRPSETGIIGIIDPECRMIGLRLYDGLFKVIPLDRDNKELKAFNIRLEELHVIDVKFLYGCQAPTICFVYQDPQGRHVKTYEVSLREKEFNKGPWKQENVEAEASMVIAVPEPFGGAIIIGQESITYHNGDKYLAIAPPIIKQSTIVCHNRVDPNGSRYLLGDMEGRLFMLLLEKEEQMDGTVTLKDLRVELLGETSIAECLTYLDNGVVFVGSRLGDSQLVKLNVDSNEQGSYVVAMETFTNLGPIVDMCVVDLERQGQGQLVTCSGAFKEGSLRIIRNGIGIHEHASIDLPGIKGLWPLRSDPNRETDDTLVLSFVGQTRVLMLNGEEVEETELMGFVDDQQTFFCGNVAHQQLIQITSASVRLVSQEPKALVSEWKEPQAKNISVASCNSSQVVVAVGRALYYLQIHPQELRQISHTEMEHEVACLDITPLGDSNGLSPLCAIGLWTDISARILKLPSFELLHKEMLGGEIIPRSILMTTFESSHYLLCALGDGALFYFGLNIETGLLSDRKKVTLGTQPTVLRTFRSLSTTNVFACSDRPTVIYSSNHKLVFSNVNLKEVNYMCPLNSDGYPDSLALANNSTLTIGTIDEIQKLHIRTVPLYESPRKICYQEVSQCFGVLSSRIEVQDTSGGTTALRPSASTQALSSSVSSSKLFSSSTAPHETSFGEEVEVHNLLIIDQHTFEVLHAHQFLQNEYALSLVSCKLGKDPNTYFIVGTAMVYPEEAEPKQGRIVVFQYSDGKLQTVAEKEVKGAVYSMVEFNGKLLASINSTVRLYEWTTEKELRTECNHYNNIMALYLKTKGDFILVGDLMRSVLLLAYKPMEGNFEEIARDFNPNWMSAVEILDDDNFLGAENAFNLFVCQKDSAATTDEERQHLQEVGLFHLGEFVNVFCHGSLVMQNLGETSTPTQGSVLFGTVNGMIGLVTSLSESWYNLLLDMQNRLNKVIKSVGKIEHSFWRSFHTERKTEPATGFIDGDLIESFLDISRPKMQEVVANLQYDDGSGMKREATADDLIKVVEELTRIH
The experiment can be described thus: CDK4 percentage degradation in Calu-1 cells (immunoblotting). The conditions noted are these: Calu-1 cells, 200 nM, 16 hours; read-out: CDK4 Degradation (200 nM). A digest of the protocol: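 CDK4 degradation was measured by immunoblotting. Cells were washed in cold PBS and lysed in RIPA buffer with inhibitors for 30 min at 4° C., then spun at 13,000 rpm to clear. After BCA protein determination, lysates were heated at 99° C. for 5 min in Laemmli buffer, resolved on SDS-PAGE, imaged on a ChemiDoc MP with ECL substrate, and band intensities quantified.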

Experiment [5] deals with T47D cells. The experiment can be described thus: Annexin V apoptosis flow cytometry in T47D cells. To be noted: 6 days. As to the method:
T47D cells were treated with DMSO, palbociclib, heterobifunctional compound CPD-343, or negative control compound CPD-380 for 6 days at doses approximating IC50 and IC90 concentrations as indicated. Cells were harvested by trypsinization, staining was carried out using the Annexin V Apoptosis Detection Kit.
Assays were performed on the CytoFLEX Cytometer (Beckman Coulter), and data were analyzed using CytExpert software. For cell death and apoptosis analysis, cells were harvested by trypsinization, staining was carried out using the Annexin V Apoptosis Detection Kit (BD Biosciences). Briefly, cells were resuspended in 1× binding buffer and incubated with fluorochrome-conjugated Annexin V and 7-AAD for 15 min in darkness at room temperature.

For experiment [6], the system named is T47D palbo-resistant cells. Briefly: Cell viability in T47D palbo-resistant model. The conditions noted are these: 10-point serial dilution, 6 days. As to the method: T47D cells were cultured long-term to resistance in the presence of 1 μM Palbocicilib. Palbo resistance was determined by CellTiter-Lumi cell viability assay. T47D parental or palbo-resistant cells were treated with palbociclib, or heterobifunctional compound CPD-343 following a 10-point serial dilution for 6 days.
Calu-1, T47D, MCF7, NCI-H522, BT-549, MDA-MB-157, MDA-MB-453, MDA-MB-468, Hs578T, KURAMOCHI, OVCAR3, MIA PaCa-2, Cal-62, LNCaP, NCI-H1703, MM.1R, Daudi, SU-DHL-4, MDA-MB-231 and other cells were cultured at 37° C. with 5% CO2 in RPMI 1640 or DMEM medium supplemented with 10% fetal bovine serum. Cells were authenticated using the short tandem repeat (STR) assays. Mycoplasma test results were negative. Cell transfection was performed using PEI or Lipofectamine 2000 (Invitrogen) following the manufacturer's instructions. […]
Cells were seeded at a density of 2,000-5,000 cells per well in 96-well assay plates and treated with test compounds following a 10-point serial dilution for 3-6 days. Cell viability was determined using the CellTiter-Lumi assay kit according to the manufacturer's instructions. The dose-response curves were determined and IC50 values were calculated using the GraphPad Prism software following a nonlinear regression (least squares fit) method. […]

On to `Cc1nc(NC(=O)c2ccccc2NC(=O)CCCCCCCCCCCNCCNC(=O)C[C@@H]2N=C(c3ccc(Cl)cc3)c3c(sc(C)c3C)-n3c(C)nnc32)sc1C` [CPD-253, (S)-2-(12-((2-(2-(4-(4-Chlorophenyl)-2,3,9-trimethyl-6H-thieno[3,2-f][1,2,4]triazolo[4,3-a][1,4]diazepin-6-yl)acetamido)ethyl)amino)dodecanamido)-N-(4,5-dimethylthiazol-2-yl)benzamide], for which, on BRD4 [1], the “reduction of BRD4 protein levels” value was “dramatically reduce”. Also, on BRD4 [2], the BRD4 protein levels result was “reduced BRD4 protein levels in a concentration-dependent manner”.
Turning to `CNc1ccc(C(=O)Nc2ccc(OC)nn2)c(NC(=O)CCOCCOCCNC(=O)CN2CCN(c3ccc(Nc4ncc5c(C)c(C(C)=O)c(=O)n(C6CCCC6)c5n4)nc3)CC2)c1` [CPD-343, 2-(3-(2-(2-(2-(4-(6-((6-Acetyl-8-cyclopentyl-5-methyl-7-oxo-7,8-dihydropyrido[2,3-d]pyrimidin-2-yl)amino)pyridin-3-yl)piperazin-1-yl)acetamido)ethoxy)ethoxy)propanamido)-N-(6-methoxypyridazin-3-yl)-4-(methylamino)benzamide], the “Annexin V+ population” value in the experiment with T47D cells [3] (10 nM) was found to be 26.9%; with T47D cells [3] (200 nM), 52.6%; in the experiment on T47D cells [5] (10 nM), 26.9%; with T47D cells [5] (200 nM), 52.6%. In addition, the “activity in T47D palbo-resistant model compared to parental cells” value in experiment [4] was “remain effective”. Also, the “CyclinD1 Degradation (200 nM)” value in the experiment on cyclin D1 is reported as “A (protein percentage degradation >=80%)”. Also, on CDK4, the inhibition at 0.2 µM was over 80%. The “cell viability in T47D palbo-resistant model” value in experiment [6] is recorded as “remained effective in T47D palbo-resistant model”.
